Laboratory results published in patent US20150299143A1, “SUBSTITUTED TRIAZOLE AND IMIDAZOLE COMPOUNDS” (HOFFMANN-LA ROCHE INC., priority 2012, published 2015).

Experiments:
[1] = molecular target: T1, β 5i (chymotrypsin-like activity) (Homo sapiens, UniProt P20618+P28062); test: Cell-Based Proteasome subunit activity/selectivity assay, β5i, substrate (ANW)2Rh110; conditions: Ramos cells; substrate (ANW)2Rh110 (β5i); highest concentration tested 20 μM; read-out: Ic50:ramos:ac-(anw)2-r110
T1 construct: protease activity associated with the proteasome complex in cultured cells; endogenous in cells; host or cells: Ramos cells
Excerpt: (§1) Cell-Based Proteasome Activity/Selectivity Assay
(§2) The Cell-Based Proteasome subunit activity/selectivity assay was a panel of 5 fluorogenic assays that independently measured the activity of β5c or β 5i (chymotrypsin-like activity), β 2c/2i (trypsin-like), and β 1c or β 1i (caspase-like) protease activity associated with the proteasome complex in cultured cells. Specifically, the following substrates were used for respective subunit activities: β 1i (PAL)2Rh110, β 1c: (LLE)2 Rh110, β 2c/2i: (KQL)2Rh110, β 5c: (WLA)2Rh110, β 5i: (ANW)2Rh110. The following procedure was followed:
(§3) Added 0.5 μl of 100× 4-fold serial diluted test compounds or DMSO to each well. Highest concentration of compound tested was 20 μM, thus compound serial dilution started from […]. Incubated for 30 minutes at 37° C. Then equilibrated at room temperature for 15 minutes. […] Shaked for one minute @ 700 rpm. Incubated for 120 min at room temperature. Then read the plates with an Envision multilabel plate reader (PerkinElmer) with 500 nm excitation/519 nm emission.

β 1i (caspase-like) = molecular target: T2, β 1i (caspase-like) (Homo sapiens, UniProt P28065+P40306); test: Cell-Based Proteasome subunit activity/selectivity assay, β1i, substrate (PAL)2Rh110; conditions: Ramos cells; substrate (PAL)2Rh110 (β1i); highest concentration tested 20 μM; read-out: Ic50:ramos:rh110-(pal)2
T2 construct: protease activity associated with the proteasome complex in cultured cells; endogenous in cells; host or cells: Ramos cells
Excerpt: as §1, §2, §3

β 1c (caspase-like) = molecular target: T3, β 1c (caspase-like) (Homo sapiens, UniProt P28072+Q99436); test: Cell-Based Proteasome subunit activity/selectivity assay, β1c, substrate (LLE)2Rh110; conditions: Ramos cells; substrate (LLE)2Rh110 (β1c); highest concentration tested 20 μM; read-out: Ic50:ramos:rh110-(lle)2
T3 construct: protease activity associated with the proteasome complex in cultured cells; endogenous in cells; host or cells: Ramos cells
Excerpt: as §1, §2, §3

β 2c/2i (trypsin-like) = test: Cell-Based Proteasome subunit activity/selectivity assay, β2c/2i, substrate (KQL)2Rh110; conditions: Ramos cells; substrate (KQL)2Rh110 (β2c/2i); highest concentration tested 20 μM
Excerpt: as §1, §2, §3

[2] = molecular target: T4, β5c (chymotrypsin-like activity) (Homo sapiens, UniProt P20618+P28074); test: Cell-Based Proteasome subunit activity/selectivity assay, β5c, substrate (WLA)2Rh110; conditions: Ramos cells; substrate (WLA)2Rh110 (β5c); highest concentration tested 20 μM; read-out: Ic50:ramos:rh110-(wla)2
T4 construct: protease activity associated with the proteasome complex in cultured cells; endogenous in cells; host or cells: Ramos cells
Excerpt: as §1, §2, §3

SMILES	IC50 [1] [µM]	IC50 (β 1i (caspase-like)) [µM]	IC50 (β 1c (caspase-like)) [µM]	IC50 (β 2c/2i (trypsin-like)) [µM]	IC50 [2] [µM]
COc1ccc(C(C#N)NC(=O)c2cn(CCNC(=O)c3ccc(OC)c(OC)c3OC)nn2)cc1 (stereo not drawn) [Example 8, 1-[2-(2,3,4-Trimethoxy-benzoylamino)-ethyl]-1H-[1,2,3]triazole-4-carboxylic acid [cyano-(4-methoxy-phenyl)-methyl]-amide]	0.423	≥ 20	≥ 20	≥ 20	≥ 20
CCc1ccc(C(C#N)NC(=O)c2cn(CCNC(=O)CC3Cc4ccccc4C3)nn2)cc1 (stereo not drawn) [Example 9, 1-[2-(2-Indan-2-yl-acetylamino)-ethyl]-1H-[1,2,3]triazole-4-carboxylic acid [cyano-(4-ethyl-phenyl)-methyl]-amide]	4.29	≥ 20	≥ 20	≥ 20	≥ 20
COc1ccc(C(=O)NCCn2cc(C(=O)NC(C#N)c3ccc(OC(F)(F)F)cc3)nn2)c(OC)c1OC (stereo not drawn) [Example 10, 1-[2-(2,3,4-Trimethoxy-benzoylamino)-ethyl]-1H-[1,2,3]triazole-4-carboxylic acid [cyano-(4-trifluoromethoxy-phenyl)-methyl]-amide]	0.886	≥ 20	≥ 20	≥ 20	≥ 20
CCc1ccc(C(C#N)NC(=O)c2cn(CCNC(=O)c3ccc(OC(F)(F)F)cc3OC)nn2)cc1 (stereo not drawn) [Example 11, 1-[2-(2-Methoxy-4-trifluoromethoxy-benzoylamino)-ethyl]-1H-[1,2,3]triazole-4-carboxylic acid [cyano-(4-ethyl-phenyl)-methyl]-amide]	0.106	≥ 20	≥ 20	≥ 20	9.98
CCc1ccc(C(C#N)NC(=O)c2cn(CCNC(=O)C3Cc4ccccc4C3)nn2)cc1 (stereo not drawn) [Example 12, 1-{2-[(Indane-2-carbonyl)-amino]-ethyl}-1H-[1,2,3]triazole-4-carboxylic acid [cyano-(4-ethyl-phenyl)-methyl]-amide]	1.26	≥ 20	≥ 20	≥ 20	≥ 20
CCc1ccc(C(C#N)NC(=O)c2cn(CCNC(=O)c3cccc4c3OCC4)nn2)cc1 (stereo not drawn) [Example 13, 1-{2-[(2,3-Dihydro-benzofuran-7-carbonyl)-amino]-ethyl}-1H-[1,2,3]triazole-4-carboxylic acid [cyano-(4-ethyl-phenyl)-methyl]-amide]	1.89	≥ 20	≥ 20	≥ 20	≥ 20
CCc1ccc(C(C#N)NC(=O)c2cn(CCNC(=O)c3cc(Cl)ccc3Cl)nn2)cc1 (stereo not drawn) [Example 14, 1-[2-(2,5-Dichloro-benzoylamino)-ethyl]-1H-[1,2,3]triazole-4-carboxylic acid [cyano-(4-ethyl-phenyl)-methyl]-amide]	0.19	≥ 20	≥ 20	≥ 20	≥ 20
CCc1ccc(C(C#N)NC(=O)c2cn(CCNC(=O)c3cccc(-c4ccccc4)n3)nn2)cc1 (stereo not drawn) [Example 15, 6-Phenyl-pyridine-2-carboxylic acid [2-(4-{[cyano-(4-ethyl-phenyl)-methyl]-carbamoyl}-[1,2,3]triazol-1-yl)-ethyl]-amide]	1.5	≥ 20	19.9	≥ 20	7.76
CCc1ccc(C(C#N)NC(=O)c2cn(CCNC(=O)CC3(O)Cc4ccccc4C3)nn2)cc1 (stereo not drawn) [Example 22, 1-{2-[2-(2-Hydroxy-indan-2-yl)-acetylamino]-ethyl}-1H-[1,2,3]triazole-4-carboxylic acid [cyano-(4-ethyl-phenyl)-methyl]-amide]	9.95	≥ 20	≥ 20	≥ 20	≥ 20
CCc1ccc(C(C#N)NC(=O)c2cn(CCNC(=O)c3ccc(C(F)(F)F)cc3OC)nn2)cc1 (stereo not drawn) [Example 23, 1-[2-(2-Methoxy-4-trifluoromethyl-benzoylamino)-ethyl]-1H-[1,2,3]triazole-4-carboxylic acid [cyano-(4-ethyl-phenyl)-methyl]-amide]	0.028	≥ 20	≥ 20	≥ 20	16.2
CCc1ccc(C(C#N)NC(=O)c2cn(CCNC(=O)c3ccccc3OC(F)(F)F)nn2)cc1 (stereo not drawn) [Example 24, 1-[2-(2-Trifluoromethoxy-benzoylamino)-ethyl]-1H-[1,2,3]triazole-4-carboxylic acid [cyano-(4-ethyl-phenyl)-methyl]-amide]	0.779	≥ 20	≥ 20	≥ 20	≥ 20
CCc1ccc(C(C#N)NC(=O)c2cn(CCNC(=O)C3=C(C)c4ccccc4C3)nn2)cc1 (stereo not drawn) [Example 25, 1-{2-[(3-Methyl-1H-indene-2-carbonyl)-amino]-ethyl}-1H-[1,2,3]triazole-4-carboxylic acid [cyano-(4-ethyl-phenyl)-methyl]-amide]	0.072	≥ 20	≥ 20	≥ 20	≥ 20
CCc1ccc(C(C#N)NC(=O)c2cn(CCNC(=O)c3cccc(OC)n3)nn2)cc1 (stereo not drawn) [Example 26, 6-Methoxy-pyridine-2-carboxylic acid [2-(4-{[cyano-(4-ethyl-phenyl)-methyl]-carbamoyl}-[1,2,3]triazol-1-yl)-ethyl]-amide]	5.38	≥ 20	≥ 20	≥ 20	≥ 20
CCc1ccc(C(C#N)NC(=O)c2cn(CCNC(=O)c3cc(Cl)ccn3)nn2)cc1 (stereo not drawn) [Example 27, 4-Chloro-pyridine-2-carboxylic acid [2-(4-{[cyano-(4-ethyl-phenyl)-methyl]-carbamoyl}-[1,2,3]triazol-1-yl)-ethyl]-amide]	4.52	≥ 20	≥ 20	≥ 20	≥ 20
CCOc1ccc(C(=O)NCCn2cc(C(=O)NC(C#N)c3ccc(CC)cc3)nn2)nc1 (stereo not drawn) [Example 28, 5-Ethoxy-pyridine-2-carboxylic acid [2-(4-{[cyano-(4-ethyl-phenyl)-methyl]-carbamoyl}-[1,2,3]triazol-1-yl)-ethyl]-amide]	0.933	≥ 20	≥ 20	≥ 20	13.3
CCc1ccc(C(C#N)NC(=O)c2cn(CCNC(=O)c3cccnc3OC)nn2)cc1 (stereo not drawn) [Example 29, N-[2-(4-{[Cyano-(4-ethyl-phenyl)-methyl]-carbamoyl}-[1,2,3]triazol-1-yl)-ethyl]-2-methoxy-nicotinamide]	3.05	≥ 20	≥ 20	≥ 20	≥ 20
CCc1ccc(C(C#N)NC(=O)c2cn(CCNC(=O)c3cncc(Br)c3OC)nn2)cc1 (stereo not drawn) [Example 30, 5-Bromo-N-[2-(4-{[cyano-(4-ethyl-phenyl)-methyl]-carbamoyl}-[1,2,3]triazol-1-yl)-ethyl]-4-methoxy-nicotinamide]	1.02	≥ 20	17	≥ 20	6.78
CCc1ccc(C(C#N)NC(=O)c2cn(CCNC(=O)c3ccc(Cl)cc3F)nn2)cc1 (stereo not drawn) [Example 31, 1-[2-(4-Chloro-2-fluoro-benzoylamino)-ethyl]-1H-[1,2,3]triazole-4-carboxylic acid [cyano-(4-ethyl-phenyl)-methyl]-amide]	0.134	≥ 20	≥ 20	≥ 20	16.1
CCc1ccc(C(C#N)NC(=O)c2cn(CCNC(=O)c3cc(OC)ccc3F)nn2)cc1 (stereo not drawn) [Example 32, 1-[2-(2-Fluoro-5-methoxy-benzoylamino)-ethyl]-1H-[1,2,3]triazole-4-carboxylic acid [cyano-(4-ethyl-phenyl)-methyl]-amide]	0.682	≥ 20	≥ 20	≥ 20	≥ 20
CCc1ccc(C(C#N)NC(=O)c2cn(CCNC(=O)c3ccccc3COC)nn2)cc1 (stereo not drawn) [Example 33, 1-[2-(2-Methoxymethyl-benzoylamino)-ethyl]-1H-[1,2,3]triazole-4-carboxylic acid [cyano-(4-ethyl-phenyl)-methyl]-amide]	1.8	≥ 20	≥ 20	≥ 20	≥ 20
CCc1ccc(C(C#N)NC(=O)c2cn(CCNC(=O)c3ccc(C)nc3OC)nn2)cc1 (stereo not drawn) [Example 34, N-[2-(4-{[Cyano-(4-ethyl-phenyl)-methyl]-carbamoyl}-[1,2,3]triazol-1-yl)-ethyl]-2-methoxy-6-methyl-nicotinamide]	0.259	≥ 20	≥ 20	≥ 20	≥ 20
